Assay results reported in PubChem BioAssay (NCI).
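Results reflect a 48-hour exposure of cells in 96-well plates to compound at five concentrations. GI50 marks 50% less growth. Definition used: TGI = concentration required for complete inhibition of growth.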

What was measured:
Assay in all cases: growth of human tumour cells (NCI), 48 h
EKVX NSCLC = tested on: EKVX NSCLC
RPMI-8226 leukemia = tested on: RPMI-8226 leukemia
HCT-116 colon = tested on: HCT-116 colon
M14 melanoma = tested on: M14 melanoma
HL-60(TB) leukemia = tested on: HL-60(TB) leukemia
LOX IMVI melanoma = tested on: LOX IMVI melanoma
ACHN renal = tested on: ACHN renal
K-562 leukemia = tested on: K-562 leukemia
SW-620 colon = tested on: SW-620 colon
OVCAR-3 ovarian = tested on: OVCAR-3 ovarian

Compound: COC1=CC(c2ccc[nH]2)=N/C1=C\c1[nH]c(C)c(C(=O)OC(C)C)c1C
- GI50 (EKVX NSCLC): 0.0799 µM
- TGI (EKVX NSCLC): 2.31 µM
- GI50 (RPMI-8226 leukemia): 0.223 µM
- TGI (RPMI-8226 leukemia): 2.47 µM
- GI50 (HCT-116 colon): 0.0274 µM
- TGI (HCT-116 colon): 1.07 µM
- GI50 (M14 melanoma): 0.034 µM
- TGI (M14 melanoma): 1.23 µM
- GI50 (HL-60(TB) leukemia): 0.0551 µM
- TGI (HL-60(TB) leukemia): 2.89 µM
- GI50 (LOX IMVI melanoma): 0.0163 µM
- TGI (LOX IMVI melanoma): 0.0372 µM
- GI50 (ACHN renal): 0.0456 µM
- TGI (ACHN renal): 1.2 µM
- GI50 (K-562 leukemia): 0.0674 µM
- TGI (K-562 leukemia): 1.14 µM
- GI50 (SW-620 colon): 0.0336 µM
- TGI (SW-620 colon): 1.44 µM
- GI50 (OVCAR-3 ovarian): 0.05 µM
- TGI (OVCAR-3 ovarian): 0.586 µM

Compound: COc1cc(/C=N/NC(=O)c2ccc(C(F)(F)F)nc2Nc2ccc(Cl)cc2C)ccc1O
- GI50 (EKVX NSCLC): 1.06 µM
- TGI (EKVX NSCLC): 12.4 µM
- GI50 (RPMI-8226 leukemia): 2.11 µM
- TGI (RPMI-8226 leukemia): 6.1 µM
- GI50 (HCT-116 colon): 2.95 µM
- TGI (HCT-116 colon): 12.7 µM
- GI50 (M14 melanoma): 3.76 µM
- TGI (M14 melanoma): 14.6 µM
- GI50 (HL-60(TB) leukemia): 1.7 µM
- TGI (HL-60(TB) leukemia): 4.41 µM
- GI50 (LOX IMVI melanoma): 1.36 µM
- TGI (LOX IMVI melanoma): 11.5 µM
- GI50 (ACHN renal): 3.06 µM
- TGI (ACHN renal): 13.7 µM
- GI50 (K-562 leukemia): 1.31 µM
- TGI (K-562 leukemia): 7.17 µM
- GI50 (SW-620 colon): 2.77 µM
- TGI (SW-620 colon): 12.1 µM
- GI50 (OVCAR-3 ovarian): 1.74 µM
- TGI (OVCAR-3 ovarian): 13 µM

Compound: N#CCCN(CCC#N)c1ccc(/C=C2\N=C(c3cc([N+](=O)[O-])ccc3Cl)OC2=O)cc1
- TGI (EKVX NSCLC): > 100 µM
- TGI (RPMI-8226 leukemia): > 100 µM
- TGI (HCT-116 colon): > 100 µM
- TGI (M14 melanoma): > 100 µM
- TGI (HL-60(TB) leukemia): 67.3 µM
- TGI (LOX IMVI melanoma): 46.5 µM
- TGI (ACHN renal): > 100 µM
- TGI (K-562 leukemia): 40.7 µM
- TGI (SW-620 colon): > 100 µM
- TGI (OVCAR-3 ovarian): 70.7 µM

Compound: CN/N=C(/Cc1occc(=O)c1O)C(=O)Nc1ccccc1C
- TGI (EKVX NSCLC): > 100 µM
- TGI (RPMI-8226 leukemia): > 100 µM
- TGI (HCT-116 colon): > 100 µM
- TGI (M14 melanoma): > 100 µM
- TGI (HL-60(TB) leukemia): > 100 µM
- TGI (LOX IMVI melanoma): > 100 µM
- TGI (ACHN renal): > 100 µM
- TGI (K-562 leukemia): > 100 µM
- TGI (SW-620 colon): > 100 µM
- TGI (OVCAR-3 ovarian): > 100 µM

Compound: CN(C)CC[N+]1=Nc2cccc3cccc(c23)N1
- TGI (EKVX NSCLC): > 100 µM
- TGI (RPMI-8226 leukemia): > 66.8 µM
- TGI (HCT-116 colon): > 72.7 µM
- TGI (M14 melanoma): > 100 µM
- TGI (HL-60(TB) leukemia): > 60.1 µM
- TGI (LOX IMVI melanoma): > 63.7 µM
- TGI (ACHN renal): > 100 µM
- TGI (K-562 leukemia): > 63.4 µM
- TGI (SW-620 colon): > 58 µM
- TGI (OVCAR-3 ovarian): > 100 µM

Compound: O=C(CC1(O)C(=O)Nc2c(Cl)cc(Cl)cc21)c1ccc(Br)cc1Br (stereo not given)
- TGI (EKVX NSCLC): 34.6 µM
- TGI (RPMI-8226 leukemia): 21.6 µM
- TGI (HCT-116 colon): 15.2 µM
- TGI (M14 melanoma): 18.5 µM
- TGI (HL-60(TB) leukemia): 18.1 µM
- TGI (LOX IMVI melanoma): 15 µM
- TGI (ACHN renal): 27.1 µM
- TGI (K-562 leukemia): 9 µM
- TGI (SW-620 colon): 10.7 µM
- TGI (OVCAR-3 ovarian): 43.8 µM
